Values of other authors, collected in patent publication US20210353710A1, “GLP-1R AGONIST AND METHODS OF TREATMENT” (The Johns Hopkins University, priority 2020, published 2021).

Conditions: given twice a day for one month

Exendin-4
effect on blood glucose in humans: hypoglycemic effect
